Experimental data reported in ChEMBL document CHEMBL5154693, “N-Methylpropargylamine-Conjugated Hydroxamic Acids as Dual Inhibitors of Monoamine Oxidase A and Histone Deacetylase for Glioma Treatment” (J Med Chem, 2022).
The source made the active and inactive calls. The calls are words filed in the database; no cut-off is given here.

Assays:
[1] = Toxicity in mouse bearing intracranial tumor assessed as median survival time at 10 mg/kg, ip for 10 days (Rvb= 13.8 days); type: organism-based; settings: in vivo, 240 h, time 10 day
[2] = target: T1, Amine oxidase [flavin-containing] B (Mus musculus, UniProt Q8BW75); assay: Inhibition of wild type MAO-B in mouse brain using methyl ester luciferin as substrate at 1 uM pre-incubated for 15 mins followed by substrate addition measured after 1 hr by MAO-Glo assay relative to control; type: tissue-based
T1 sequence (Q8BW75 whole entry): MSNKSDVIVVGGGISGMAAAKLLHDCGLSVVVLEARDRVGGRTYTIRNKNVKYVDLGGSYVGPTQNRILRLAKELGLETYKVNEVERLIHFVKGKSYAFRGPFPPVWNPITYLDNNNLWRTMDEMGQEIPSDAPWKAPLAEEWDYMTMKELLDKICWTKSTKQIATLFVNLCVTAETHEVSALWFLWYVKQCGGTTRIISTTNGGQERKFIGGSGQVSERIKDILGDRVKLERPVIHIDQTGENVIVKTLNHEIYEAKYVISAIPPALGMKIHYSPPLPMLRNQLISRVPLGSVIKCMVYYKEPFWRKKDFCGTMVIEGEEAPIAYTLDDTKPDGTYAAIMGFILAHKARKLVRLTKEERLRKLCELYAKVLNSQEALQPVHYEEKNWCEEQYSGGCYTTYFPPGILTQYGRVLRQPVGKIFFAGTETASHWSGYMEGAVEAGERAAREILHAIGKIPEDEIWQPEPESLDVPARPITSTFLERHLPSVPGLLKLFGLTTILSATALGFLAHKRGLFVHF

U-251 [3] = assay: cells; type: functional, cell-based; settings: Homo sapiens, U-251, 48 h
Description: Cytotoxicity against human TMZ-resistant U251 cells assessed as inhibition of cell growth incubated for 48 hrs by MTT assay

[4] = Toxicity in mouse bearing intracranial tumor assessed as median survival time at 10 mg/kg, ip in presence of SAHA for 10 days (Rvb=13.8 days); type: organism-based; settings: in vivo, 240 h, time 10 day
[5] = Toxicity in mouse bearing intracranial tumor assessed as last day of survival at 10 mg/kg, ip treatment started at 7 dpi (Rvb=19 days); type: organism-based; settings: in vivo, 456 h
[6] = Toxicity in mouse bearing intracranial tumor assessed as median survival time at 5 mg/kg, ip in presence of SAHA for 10 days (Rvb=13.8 days); type: organism-based; settings: in vivo, 240 h, time 10 day
U-251 [7] = assay: cells; type: functional, cell-based; settings: Homo sapiens, U-251, 48 h; remark: listed apart in the source
Description: Cytotoxicity against human TMZ-sensitive U251 cells assessed as inhibition of cell growth incubated for 48 hrs by MTT assay

[8] = Toxicity in mouse bearing intracranial tumor assessed as last day of survival at 10 mg/kg,ip for 10 days (Rvb=16 days); type: organism-based; settings: in vivo, 240 h, time 10 day
[9] = Toxicity in mouse bearing intracranial tumor assessed as last day of survival at 5 mg/kg, ip in presence of SAHA for 10 days (Rvb=16 days); type: organism-based; settings: in vivo, 240 h, time 10 day
[10] = Toxicity in mouse bearing intracranial tumor assessed as last day of survival at 10 mg/kg, ip in presence of SAHA for 10 days (Rvb=16 days); type: organism-based; settings: in vivo, 240 h, time 10 day
Mus musculus [11] = assay: In vivo inhibition of MAO-A in mouse xenografted with mouse GL26 assessed as decrease in MAO activity in tumor at 10 mg/kg by radiometric analysis; type: functional, organism-based
Mus musculus [12] = assay: In vivo inhibition of MAO-A in mouse xenografted with mouse GL26 cells as decrease in MAO activity in brain at 10 mg/kg by radiometric analysis; type: functional, organism-based
[13] = Toxicity in mouse bearing intracranial tumor assessed as assessed as median survival time at 10 mg/kg, ip treatment started at 7 dpi (Rvb=18.25 days); type: organism-based; settings: in vivo, 438 h
[14] = Cytotoxicity against mouse GL26 cells assessed as inhibition of cell growth incubated for 48 hrs by MTT assay; type: functional, cell-based; settings: GL26, 48 h
[15] = Toxicity in mouse bearing intracranial tumor assessed as assessed as median survival time at 10 mg/kg, ip for 14 days treatment started at 5 days post-infection (Rvb=12.8 days); type: organism-based; settings: in vivo, 336 h, time 14 day
[16] = Toxicity in mouse bearing intracranial tumor assessed as assessed as […] at 10 mg/kg, ip for 14 days treatment started at 5 days post-infection (Rvb=14 days); type: organism-based; settings: in vivo, 336 h, time 14 day

Work on `C#CCN(C)CCCOc1ccc(Cl)cc1Cl` [CLORGILINE] yielded a Survival [1] of 13.8 days, an inhibition at 1 µM [2] of under 25% and an IC50 (U-251 [3]) of 136 µM. It also gave an MST [4] of 14.4 days, a Survival [5] of 19 days and an MST [6] of 13.8 days. It also gave an IC50 (U-251 [7]) of 175 µM, a Survival [8] of 17 days and a Survival [9] of 14 days. The Survival [10] was 18 days, the Activity (Mus musculus [11]) was “Active” and the Activity (Mus musculus [12]) was “Active”. The MST [13] was 17.25 days, the IC50 [14] was 169 µM and the Survival [15] was 15 days. It also gave an MST [16] of 11.75 days.
